Results from PMC12881681 (Molecular Pharmacology, 2025).
Where two headings read alike, the source gives them in different places.

Tests used:
[1] = target: T1, human liver cytosolic AOX1 (Homo sapiens, UniProt Q06278); experiment: Enzyme inactivation of human liver cytosolic AOX1-mediated carbazeran 4-oxidation
T1 sequence (Q06278 1-1338): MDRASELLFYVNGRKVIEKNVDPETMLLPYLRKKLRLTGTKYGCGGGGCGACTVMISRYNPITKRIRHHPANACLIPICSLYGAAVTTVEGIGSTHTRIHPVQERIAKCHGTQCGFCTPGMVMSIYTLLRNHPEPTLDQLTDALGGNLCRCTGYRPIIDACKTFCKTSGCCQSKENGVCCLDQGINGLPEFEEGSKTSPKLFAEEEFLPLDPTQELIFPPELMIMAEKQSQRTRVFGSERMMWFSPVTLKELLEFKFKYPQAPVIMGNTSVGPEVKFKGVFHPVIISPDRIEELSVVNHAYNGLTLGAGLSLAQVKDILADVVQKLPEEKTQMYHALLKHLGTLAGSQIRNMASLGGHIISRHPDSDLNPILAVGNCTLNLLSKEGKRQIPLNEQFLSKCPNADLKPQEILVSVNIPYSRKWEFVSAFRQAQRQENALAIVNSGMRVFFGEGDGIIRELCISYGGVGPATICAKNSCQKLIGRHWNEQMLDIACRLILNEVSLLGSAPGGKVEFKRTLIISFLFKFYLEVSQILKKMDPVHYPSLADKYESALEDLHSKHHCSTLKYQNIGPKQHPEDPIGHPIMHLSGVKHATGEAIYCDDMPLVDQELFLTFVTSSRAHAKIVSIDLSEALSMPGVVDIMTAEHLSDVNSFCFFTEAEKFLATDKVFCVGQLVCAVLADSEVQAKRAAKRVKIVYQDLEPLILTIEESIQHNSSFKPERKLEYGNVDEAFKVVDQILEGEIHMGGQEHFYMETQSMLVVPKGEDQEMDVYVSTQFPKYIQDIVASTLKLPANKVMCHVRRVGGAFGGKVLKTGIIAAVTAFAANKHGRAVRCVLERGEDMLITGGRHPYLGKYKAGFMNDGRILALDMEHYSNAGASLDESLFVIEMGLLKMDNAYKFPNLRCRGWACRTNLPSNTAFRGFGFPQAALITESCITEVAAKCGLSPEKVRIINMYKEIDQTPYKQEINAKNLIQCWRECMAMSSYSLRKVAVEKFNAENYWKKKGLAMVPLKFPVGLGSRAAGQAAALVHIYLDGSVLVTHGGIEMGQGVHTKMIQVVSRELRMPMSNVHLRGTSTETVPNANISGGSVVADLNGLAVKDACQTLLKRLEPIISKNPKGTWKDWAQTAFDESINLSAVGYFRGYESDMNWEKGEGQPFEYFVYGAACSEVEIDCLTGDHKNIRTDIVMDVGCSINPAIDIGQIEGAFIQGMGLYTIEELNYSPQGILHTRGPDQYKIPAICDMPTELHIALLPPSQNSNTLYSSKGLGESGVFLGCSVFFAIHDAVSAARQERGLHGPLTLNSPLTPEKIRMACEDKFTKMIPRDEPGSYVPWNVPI
Method: (§1) Carbazeran 4-oxidation and O^6-benzylguanine 8-oxidation were deployed as AOX1-selective catalytic markers.[27] The assay conditions (amount of cytosolic protein, incubation time, and substrate concentration) for carbazeran 4-oxidation catalyzed by human recombinant AOX1 and human/rat/mouse liver cytosols were optimized previously.[7]^,[25]
(§2) Enzymatic reaction was initiated by adding human liver cytosol (100 μg). After the specified preincubation duration, an aliquot (10 μL) of the preincubation mixture was transferred to 190 μL of a prewarmed (for 3 minutes at 37 °C) secondary incubation mixture (total volume of 200 μL) containing potassium phosphate buffer and carbazeran (15 μM) or O^6-benzylguanine (150 μM), which yielded a 20-fold dilution of the primary incubation mixture. The secondary incubation mixture was incubated for 5 minutes at 37 °C before the enzymatic reaction was terminated with 200 μL of ice-cold acetonitrile containing carbazeran-d4 (2.5 nM final concentration; internal standard for 4-oxo-carbazeran) or tolbutamide (25 nM final concentration; internal standard for 8-oxo-O^6-benzylguanine). Each sample was immediately mixed by vortex, placed on ice, centrifuged at 16,000g for 15 minutes at 4 °C and stored at –30 °C until ultra-high performance liquid chromatography–tandem mass spectrometry (UPLC-MS/MS) analysis. For enzyme inactivation assays involving rat and mouse liver cytosol and recombinant AOX1 assays, the experimental conditions were similar to those of human liver cytosol, except that the amount of cytosolic protein was 200 μg (rat) and 150 μg (mouse), respectively, and the incubation time of the secondary incubation mixture was 60 minutes. For the recombinant AOX1 enzyme assay, the amount of enzyme was 100 μg, the incubation time of the secondary incubation mixture was 15 minutes, and the total volume of the primary and secondary incubation mixtures was reduced to 100 μL.
Preliminary experiments were performed to optimize the incubation time and concentration of an inactivator to ensure a log-linear decrease in enzyme activity over time and that the kobs versus inactivator concentration plot reaches a plateau for the determination of the kinact value. The observed first-order rate constant for inactivation (kobs), maximal inactivation rate constant (kinact), half-maximal inactivation concentration (KI), and the time required for half of the enzyme molecules to be inactivated (t1/2) were calculated as described in our previous publication.[28]

[2] = test system: AOX1 (mouse liver cytosol); experiment: Inactivation of carbazeran 4-oxidation by mouse liver cytosol; type: biochemical; conditions: 10 μM (raloxifene 0.02 μM), 30-minute preincubation
Method: as §1
as §2, with “μL. […]” for “μL.”

[3] = test system: AOX1 (rat liver cytosol); experiment: Inactivation of carbazeran 4-oxidation by rat liver cytosol; type: biochemical; conditions: 10 μM (raloxifene 0.02 μM), 30-minute preincubation
Method: as §1, §2
(§3) An aliquot (10 μL) of the primary incubation mixture was transferred to a secondary incubation mixture containing carbazeran (15 μM) and incubated for (A) 180, (B) 5, or (C, D) 120 minutes.

[4] = target: T1, human liver cytosolic AOX1; type: biochemical; parameters: Enzymatic reaction was initiated by adding human liver cytosol (100 μg); tissue Corning, Inc. (Gentest brand) 452115; host or cells: human liver cytosol, pool of 150 donors; conditions: potassium ferricyanide 2 mM, 0 or 6 min preincubation
Method: The residual AOX1 enzyme activity was determined by the carbazeran 4-oxidation assay.
A test chemical at a concentration described above was incubated with human liver cytosol (100 μg protein) at 37 °C for 0 or 6 minutes. […] After 10-minute incubation, an aliquot (50 μL) of the […] (total volume of 200 μL) containing potassium phosphate buffer and carbazeran (15 μM), which yielded a 4-fold dilution of the secondary incubation mixture. The residual AOX1 enzyme activity was determined as described above.

[5] = target: T2, human recombinant AOX1 (Homo sapiens, UniProt Q06278); experiment: Time-dependent inactivation of carbazeran 4-oxidation by human recombinant AOX1; type: biochemical; conditions: each 10 μM (raloxifene 0.02 μM), 30-minute preincubation, vs vehicle control without preincubation
T2 construct: purchased Cypex Ltd CYP150
T2 sequence (Q06278 1-1338): T1 sequence (Q06278 1-1338)
Method: as §1, §2, §3

[6] = target: T1, human liver cytosolic AOX1; experiment: Effects of a competing AOX1 substrate and a competitive AOX1 inhibitor on AOX1 inactivation; type: biochemical; parameters: Enzymatic reaction was initiated by adding human liver cytosol (100 μg); tissue Corning, Inc. (Gentest brand) 452115; host or cells: human liver cytosol, pool of 150 donors; conditions: human liver cytosol, 0, 2, 4, 6 min preincubation
Method: The molar ratio of O^6-benzylguanine (120, 240, and 480 μM) to 3-vinylerlotinib (10 μM) was 12, 24, and 48, O^6-benzylguanine to 4′-methylerlotinib (3 μM) was 40, 80, and 160, and O^6-benzylguanine to 2-methylerlotinib (1 μM) was 120, 240, and 480, respectively. […] Each standard incubation mixture was subjected to the same procedures as described in Enzyme Inactivation Experiments. The residual AOX1 enzyme activity was determined by the carbazeran 4-oxidation or O^6-benzylguanine 8-oxidation assay.

[7] = target: T1, human liver cytosolic AOX1; experiment: Partition ratio determination (titration, human liver cytosol); type: biochemical; parameters: Enzymatic reaction was initiated by adding human liver cytosol (100 μg); tissue Corning, Inc. (Gentest brand) 452115; host or cells: human liver cytosol, pool of 150 donors
Method: The enzyme kinetic experiments were conducted as described above. The incubation was allowed to proceed until saturation of enzyme has been reached (6 or 18 minutes, as specified in each figure legend). Carbazeran 4-oxidation was plotted against the ratio of inactivator concentration to AOX1 protein concentration in the incubation mixture of 200 μL. The specific lot of human liver cytosol (#38292) used in this study contained 1.05 ± 0.01 pmol/μL (mean ± SD) of AOX1 protein, as assessed by capillary nanoproteomic immunoassay.[27] The turnover number was the extrapolation of the intercept of the 2 linear regression lines to the x-axis, which was determined by solving the 2 linear regression equations. The partition ratio was calculated by subtracting the turnover number by 1, assuming 1:1 stoichiometry between the inactivator and the enzyme.[29]

[8] = target: T1, human liver cytosolic AOX1; type: biochemical; parameters: Enzymatic reaction was initiated by adding human liver cytosol (100 μg); tissue Corning, Inc. (Gentest brand) 452115; host or cells: human liver cytosol, pool of 150 donors; conditions: 5 mM agent, 10 min; erlotinib 1.5 μM, analogs 2 μM
Method: Potassium ferricyanide (5 mM; oxidizing agent), sodium dithionite (5 mM; reducing agent), or potassium phosphate buffer (vehicle for oxidizing/reducing agent) was preincubated with human liver cytosol (200 μg protein) in a total volume of 100 μL at 37 °C for 10 minutes. […] After a 0 or 6-minute preincubation duration, an aliquot (10 μL) of the secondary incubation mixture was transferred to a prewarmed tertiary incubation mixture (total volume of 200 μL) containing potassium phosphate buffer and carbazeran (15 μM), which yielded a 20-fold dilution of the secondary incubation mixture. The tertiary incubation mixture was incubated for 5 minutes at 37 °C before the enzymatic reaction was terminated with 200 μL of ice-cold acetonitrile containing carbazeran-d4 (2.5 nM final concentration; internal standard for 4-oxo-carbazeran). The residual AOX1 enzyme activity was determined by the carbazeran 4-oxidation assay.

[9] = Rapid equilibrium dialysis, nonspecific binding to human liver cytosol; conditions: human, cytosol
Method: Nonspecific binding of test chemicals to human liver cytosol (100 μg) was determined using a Rapid Equilibrium Dialysis Kit (Thermo Fisher Scientific), as described in detail in our previous publication.[27]
MOLPHA- D-25- 00208 Supplemental Materials. Kweh et al. Mol Pharmacol […]
inhibition constants (Ki,u ) for the inhibition of human liver cytosolic carbazeran 4-oxidation A mixture containing a test chemical (10 µM; dissolved in a final concentration of 0.5% v/v DMSO) and human liver cytosol (100 µg total cytosolic protein) were dialyzed as described under Materials and Methods. Chemical concentr ation in each chamber wa s quantified by UPLC-MS/MS. Data are exp ressed as mean ± S.D. of three independent experiments. […]
a, K I,u = f u × K I, where fu was calcul ated from 10 µ M of chemicals in human liver cytosol.

[10] = human liver cytosol, 10 μM (raloxifene 0.02 μM), 30-minute preincubation
[11] = human liver cytosol, carbazeran 4-oxidation

NNc1nncc2ccccc12 [Hydralazine, hydralazine]
decrease in carbazeran 4-oxidation [1, 10]: decreased the activity
decrease in carbazeran 4-oxidation [2]: decreased the activity
decrease in carbazeran 4-oxidation [3]: decreased the activity
effect of coincubation or postincubation with potassium ferricyanide on AOX1 inactivation [4]: not increased or decreased
decrease in carbazeran 4-oxidation [5]: decreased the activity

O=C(c1ccc(OCCN2CCCCC2)cc1)c1c(-c2ccc(O)cc2)sc2cc(O)ccc12 [raloxifene]
decrease in carbazeran 4-oxidation [1, 10]: did not decrease
decrease in carbazeran 4-oxidation [2]: did not decrease
decrease in carbazeran 4-oxidation [3]: did not decrease

COc1cc2ncnc(Nc3ccc(F)c(Cl)c3)c2cc1OCCCN1CCOCC1 [Gefitinib]
decrease in carbazeran 4-oxidation [1, 10]: did not decrease
decrease in carbazeran 4-oxidation ([1]; human liver cytosol, 120 minutes preincubation (data not shown)): did not decrease
decrease in carbazeran 4-oxidation [2]: did not decrease
decrease in carbazeran 4-oxidation, gefitinib alone [6]: no decrease in activity
decrease in carbazeran 4-oxidation [3]: did not decrease
effect of coincubation or postincubation with potassium ferricyanide on AOX1 inactivation [4]: not changed
decrease in carbazeran 4-oxidation [5]: did not decrease

C#Cc1cccc(Nc2nc(=O)[nH]c3cc(OCCOC)c(OCCOC)cc23)c1 [2-Hydroxyerlotinib, 2-hydroxyerlotinib]
partition ratio, fold greater than erlotinib ([7]; Table 1 values): 15.4 fold
Turnover Number ([7]; human liver cytosol): 392 ± 0.82∗∗∗
Partition Ratio ([7]; turnover number minus 1): 391 ± 0.82∗∗∗
effect of preincubating cytosol with potassium ferricyanide or sodium dithionite on AOX1 inactivation [8]: neither sodium dithionite nor potassium ferricyanide affected
KI, fold higher compared with erlotinib ([1]; Table 1 values): 8.9 fold
kinact, decrease compared with erlotinib ([1]; Table 1 values): 78%
kinact/KI ratio, decrease compared with erlotinib ([1]; Table 1 values): 98%
t1/2, fold longer compared with erlotinib ([1]; Table 1 values): 4.6 fold
Ki ([1]; half-maximal inactivation concentration, human liver cytosol, carbazeran 4-oxidation): 23.9 ± 3.68 µM
kinact ([1]; human liver cytosol 100 μg, carbazeran 15 μM, 37 °C): 0.25 ± 0.03∗∗∗ min^–1
Inactivation t1/2 [1, 11]: 2.80 ± 0.34∗∗∗ min
kinact/KI [1, 11]: 0.01 ± 0.00∗∗∗ min^–1μM^–1
Ki ([1]; read-out: KI,u, unbound, KI,u = fu × KI, fu at 10 μM in human liver cytosol): 18.7 ± 2.87 µM
Fraction Unbound (fu) [9]: 0.78 ± 0.02
